{
  "source": "patent US5750141A",
  "about": "“Administration of vaso-active agent and therapeutic agent” (The University of Queensland, priority 1993, dated 1998)",
  "key": {"[1]": {"conditions": "30° C.; Michaels et al.; cited from earlier work"}, "[2]": {"format": "in vivo, rat (male Wistar)"}, "[3]": {"conditions": "for Change in salicylic acid clearance from solutions applied to the dermis: FIG. 1", "quoted_text": "In vivo dermal penetration and local tissue uptake studies: The rats were lightly anaesthetised by pentobarbitone (35mg/kg) and their body temperature maintained at 37° C. by placing them on a heating pad. The hair from the 4 cm^2 dorsum area were removed by electric clippers and the epidermis removed by means of an electrodermatome set at a thickness of 80 microns. A dermal absorption cell was adhered to the exposed rat dermis and warmed to 37° C. by means of an external heating device.\nSolution of solute spiked with corresponding labelled substance and containing an appropriate concentration of phenylephrine, previously warmed to 37° C., was introduced into the dermal absorption cell and the solution stirred by a glass stirrer driven by an external motor. Samples were removed from the donor cell at predetermined times and placed in preweighed scintillation vials. The glass cell was removed from the rat skin at the end of two hour dermal perfusion study and the application area wiped dry with blotting paper. A blood sample was then taken from the tail vein and the animals sacrificed with overdoes of anaesthetic ether. Immediately thereafter the tissues below the treated site i.e. skin, subcutaneous tissue, fascia, muscle lining or superficial muscle, muscle, fat pad and deep muscle were removed from dissection and placed in preweighed scintillation vials. Similarly, the tissues below the contralateral side were also removed. Tissue and plasma samples were stored at -20° C. prior to analysis. In vivo dermal penetration and local tissue uptake studies (sacrificed animals): The rats were initially anaesthetised by intraperitoneal injection of pentobarbitone (35 mg/kg) and after removing epidermis as described above, were sacrificed by overdose of ether. Dermal perfusion and tissue uptake studies were then conducted in postmortem rats.\nThe phenylephrine induced reduction in blood flow to dermis was determined by monitoring the dermal clearance of tritiated water in presence of phenylephrine.\nAqueous samples removed from the glass cells in in vivo dermal perfusion studies were directly mixed with 5 ml of liquid scintillation cocktail BCS and counted on liquid scintillation counter. The tissue samples were solubilised with 50 μl of water and 1 ml of tissue solubilizer NCS at 50° C. for 6-8 hrs."}, "[4]": {"conditions": "reductions in blood flow; cited from earlier work"}, "[5]": {"parameters": "species or system rat (male Wistar)", "protocol": "The following experiment was designed to determine the effect of changes in tissue blood flow (perfusion) on the transdermal absorption and subsequent tissue distribution of 3H-water.\nHindlimb perfusions: Briefly, rats (malc Wistar 280-340 g) were anaesthetised with sodium pentobarbitone 60 mg/ig i.p., the abdomen opened and the right femoral artery cannulated (PESO) via the aorta. A second cannula (PE205) was placed in the dorsal vena cava, and the hindlimb perfused in a humidicrib at 37° C. with oxygenated (95%O2 /5%CO2) Krebs Heinseleit Ringer (mM: NaCl 118, KCl 4.74, KH2 PO4 1.18, MgSO4.7H2 O 0 1.18 CaCl2.2H2 O 2.54, NaHCO3 25, Glucose 11.1;pH 7.4, 37° C.), containing 4% bovine serum albumin (Fraction V, Sigma). Once the perfusions were established rats were sacrificed by creating a pneumothorax and turned over so that cells could be attached to the outer thigh of the perfused limb. The pressure of the inflowing perfusate was continuously monitored, mean pressures were in the order of 30 and 40 mmHg at 4 and 8ml/min respectively. The perfused preparation is stable for up to 2 hrs, as validated by testing inflowing and outflowing perfusate samples for pH, dissolved oxygen concentrations, together with various enzyme and ion concentrations. The perfusion flow rates were controlled by a graduated peristaltic pump, and were measured at the beginning and end of each experiment.\nGlass diffusion cells (8 cm high, 1.8 cm internal diameter, 2.54 cm^2 skin application area), were fixed to the skin on the outer thigh of the perfused hindlimb with adhesive. The application area on the hindlimb was first depilated with commercial Nair™ hair-removal cream and the epidermis removed using a dermatome before the perfusion was established. Solutions (2 ml) containing trace amounts of the radiolabelled ^3 H-water (Sigma Chemical Co, Australia), in phosphate buffered saline (pH 7.4, 37° C.) were introduced into the cell at time 0. Absorption studies were conducted for 90 minutes, after which time the cell contents were drawn out with a pipette, the cell removed and the tissues from beneath the position of the cell sequentially dissected into preweighed vials for weight determination, solubilisation and liquid scintillation counting."}, "[6]": {"format": "in vivo, rat (male Wistar)", "protocol": "Male Wistar rats (348±20 g) were anaesthetised i.p. with sodium pentobarbitone (60 mg/kg) and laid abdomen down on a heating pad (37° C.) with the left hindleg extending over the edge of the pad. The left hind foot was cleaned with cotton wool swabs soaked in a dilute solution of ethanol then dried. The foot was then immersed, to a standard position marked on the ankle joint, in 2 ml of vehicle solution (30% propylene glycol/30% ethanol/40% water) containing ^3 H-water (Sigma, Australia) with (n=3) or without (n=3) 2% GTN (David Bull Laboratories Pty Ltd. Melbourne, Australia). Solutions were left in contact with the foot for 2 hours with 10 μl samples taken at time zero and at the end of the absorption period. After 2 hrs a blood sample was taken from the tail vein and animals were sacrificed by cervical dislocation whilst still anaesthetised. The rat paws were cleaned as previously to remove any excess radiolabelled solute from the surface. Skin from the upper part of the foot, the foot pad and foot muscles were dissected from each treated and contralateral paw, placed into preweighed scintillation vials, solubilised with NCS (Amersham, Australia) and counted for radioactivity, along with the 10 μl solution samples, following the addition of the appropriate scintillation cocktail. Statistical analysis was performed using a Student unpaired t-test, with significance taken at the P<0.05 level.", "remark": "listed apart in the source"}, "[7]": {"conditions": "topical ointment; cited from earlier work"}, "[8]": {"conditions": "postmortem conditions; cited from earlier work"}, "[9]": {"conditions": "nitroglycerine; cited from earlier work"}, "[10]": {"conditions": "2% GTN vs vehicle, 2 hours, FIG. 5"}},
  "note": "Where two headings read alike, the source gives them in different places.",
  "data": [
    {"smiles": "CN[C@@H](C)[C@H](O)c1ccccc1", "note": "[ephedrine]", "values": [
      {"measurement": "Maximum flux through skin", "setting": "[1]", "value": "250-400 μg/cm^2 per hr"}
    ]},
    {"smiles": "O=C(O)c1ccccc1O", "note": "[salicylic acid]", "values": [
      {"measurement": "Plasma levels and levels in contralateral tissues", "setting": "[2]; PE concentration of 0.1%, FIG. 2a-h", "value": "sudden increase"},
      {"measurement": "Concentration in underlying tissues (fraction of initial concentration)", "setting": "[2]; PE concentrations above 0.01%, FIG. 2a-g", "value": "approach a constant value"},
      {"measurement": "Concentration in underlying tissues (fraction of initial concentration)", "setting": "[2]; PE up to 0.01%, underlying tissues except for fat pad, FIG. 2a-g", "value": "increase with increase in concentration of PE up to 0.01%"},
      {"measurement": "Systemic salicylic acid blood levels", "setting": "[2]; increasing phenylephrine concentration, FIG. 2h", "value": "gradual decline"},
      {"measurement": "Concentration in contralateral tissues", "setting": "[2]; increasing phenylephrine concentrations, FIG. 2a-g", "value": "decreased with increasing phenylephrine concentrations"},
      {"measurement": "Concentration in deep muscle", "setting": "[2]; phenylephrine 0.01%", "value": "maximum concentrations"},
      {"measurement": "Concentration in deep muscle", "setting": "[2]; phenylephrine above 0.01%", "value": "decreases"},
      {"measurement": "Change in salicylic acid clearance from solutions applied to the dermis", "setting": "[3]; increasing phenylephrine concentration up to 0.05%", "value": "decreased up to phenylephrine concentration of 0.05%"},
      {"measurement": "Change in salicylic acid clearance from solutions applied to the dermis", "setting": "[3]; phenylephrine 0.1%", "value": "no further decrease"}
    ]},
    {"smiles": "O", "note": "[Water]", "values": [
      {"measurement": "Concentration in plasma and contralateral tissues", "setting": "[2]; in the presence of phenylephrine", "value": "decreased"},
      {"measurement": "Concentration in tissues below the application area", "setting": "[2]; in the presence of phenylephrine, FIGS. 3 & 4", "value": "increased"},
      {"measurement": "Absorption from dermal and subcutaneous sites", "setting": "[4]", "value": "significant reductions in absorption"},
      {"measurement": "Dependence of tissue concentrations on perfusion flow rate", "setting": "[5]; 4 vs 8 ml/min", "value": "great dependence on perfusion flow rate"},
      {"measurement": "Tissue concentration of water in dermis (2 mm) and superficial muscle layer (5 mm)", "setting": "[5]; 8 ml/min vs 4 ml/min, p<0.05", "value": "statistically lower"},
      {"measurement": "Tissue concentration of water in the deeper muscle layers", "setting": "[5]; lower flow rate (4 ml/min)", "value": "higher concentrations"},
      {"measurement": "Increase in clearance from the dermal cell", "setting": "[5]; perfusion flow rate raised from 4 ml/min to 8 ml/min, p<0.05, 90 minutes, pH 7.4, 37° C.", "value": 31, "unit": "%"},
      {"measurement": "Concentration of water in upper skin and muscle tissues of the contralateral limb", "setting": "[6]; 2% GTN vs vehicle", "value": "significant increase"},
      {"measurement": "Concentration in the outer skin or foot pad of the rat paw", "setting": "[6]; [10]", "value": "no significant change"},
      {"measurement": "Concentration of water in the deeper foot muscles", "setting": "[6]; [10]", "value": "highly significant increase"},
      {"measurement": "Plasma concentration of water", "setting": "[6]; 2% GTN vs vehicle, 2 hours, P=0.046, FIG. 5", "value": "significant increase"},
      {"measurement": "Underlying tissue concentration of topically coadministered 3H-water", "setting": "[6]; topical GTN, anaesthetised animals", "value": "significantly increase"},
      {"measurement": "Dermal clearance (Mean ± S.D.)", "setting": "[3]; Control (no phenylephrine), anaesthetised rats, 37° C., two hour study", "value": "1.10 ± 0.24", "unit": "mL/h"},
      {"measurement": "Dermal clearance (Mean ± S.D.)", "setting": "[3]; Phenylephrine (1:5000)", "value": "0.40 ± 0.02", "unit": "mL/h"},
      {"measurement": "Dermal clearance (Mean ± S.D.)", "setting": "[3]; Phenylephrine (1:20000)", "value": "0.53 ± 0.05", "unit": "mL/h"},
      {"measurement": "Dermal clearance (Mean ± S.D.)", "setting": "[3]; Sacrificed animals", "value": "0.36 ± 0.02", "unit": "mL/h"}
    ]},
    {"smiles": "CCCCC[C@H](O)/C=C/[C@@H]1[C@H]2C/C(=C/CCCC(=O)O)O[C@H]2C[C@H]1O", "note": "[Prostaglandin I2 (PGI2)]", "values": [
      {"measurement": "Effectiveness in the treatment of skin ulcers", "setting": "[7]", "value": "effective in the treatment of skin ulcers"}
    ]},
    {"smiles": "CN(Cc1cnc2nc(N)nc(N)c2n1)c1ccc(C(=O)N[C@@H](CCC(=O)O)C(=O)O)cc1", "note": "[methotrexate]", "values": [
      {"measurement": "Disappearance from dermal and subcutaneous sites", "setting": "[8]", "value": "reduced"}
    ]},
    {"smiles": "O=[N+]([O-])OCC(CO[N+](=O)[O-])O[N+](=O)[O-]", "note": "[nitroglycerine]", "values": [
      {"measurement": "Water solubility", "setting": "[9]", "value": 1300, "unit": "µg/mL"}
    ]}
  ]
}
